The target of assay [1] is metalloprotease LF (lethal factor) (Bacillus anthracis, UniProt P15917). Kind of assay: biochemical.
A short description of assay [2]: Insulin tolerance test in insulin insensitive db/db mice. In kind it is in vivo. The conditions noted are these: 25 mg/kg i.p. once, 30 minutes prior to insulin injection.
The target of the next assay is Akt1 (Homo sapiens, UniProt P31749). Kind of assay: Selectivity profile: Akt1. In kind it is biochemical.
Sequence of Akt1 (P31749 whole entry, species assumed): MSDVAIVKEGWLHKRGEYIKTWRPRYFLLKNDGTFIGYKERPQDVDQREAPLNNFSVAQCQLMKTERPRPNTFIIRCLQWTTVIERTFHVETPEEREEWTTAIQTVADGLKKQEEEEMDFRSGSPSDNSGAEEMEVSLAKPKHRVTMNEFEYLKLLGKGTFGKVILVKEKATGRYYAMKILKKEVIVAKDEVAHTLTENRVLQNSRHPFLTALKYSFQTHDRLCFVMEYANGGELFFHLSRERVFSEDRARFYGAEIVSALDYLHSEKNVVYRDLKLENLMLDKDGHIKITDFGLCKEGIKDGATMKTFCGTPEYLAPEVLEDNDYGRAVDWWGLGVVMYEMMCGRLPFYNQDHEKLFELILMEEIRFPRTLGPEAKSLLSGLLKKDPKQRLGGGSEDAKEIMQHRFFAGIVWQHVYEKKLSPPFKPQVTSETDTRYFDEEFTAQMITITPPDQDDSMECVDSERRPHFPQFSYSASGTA

Sequence of metalloprotease LF (lethal factor) (P15917 34-809 limits assumed): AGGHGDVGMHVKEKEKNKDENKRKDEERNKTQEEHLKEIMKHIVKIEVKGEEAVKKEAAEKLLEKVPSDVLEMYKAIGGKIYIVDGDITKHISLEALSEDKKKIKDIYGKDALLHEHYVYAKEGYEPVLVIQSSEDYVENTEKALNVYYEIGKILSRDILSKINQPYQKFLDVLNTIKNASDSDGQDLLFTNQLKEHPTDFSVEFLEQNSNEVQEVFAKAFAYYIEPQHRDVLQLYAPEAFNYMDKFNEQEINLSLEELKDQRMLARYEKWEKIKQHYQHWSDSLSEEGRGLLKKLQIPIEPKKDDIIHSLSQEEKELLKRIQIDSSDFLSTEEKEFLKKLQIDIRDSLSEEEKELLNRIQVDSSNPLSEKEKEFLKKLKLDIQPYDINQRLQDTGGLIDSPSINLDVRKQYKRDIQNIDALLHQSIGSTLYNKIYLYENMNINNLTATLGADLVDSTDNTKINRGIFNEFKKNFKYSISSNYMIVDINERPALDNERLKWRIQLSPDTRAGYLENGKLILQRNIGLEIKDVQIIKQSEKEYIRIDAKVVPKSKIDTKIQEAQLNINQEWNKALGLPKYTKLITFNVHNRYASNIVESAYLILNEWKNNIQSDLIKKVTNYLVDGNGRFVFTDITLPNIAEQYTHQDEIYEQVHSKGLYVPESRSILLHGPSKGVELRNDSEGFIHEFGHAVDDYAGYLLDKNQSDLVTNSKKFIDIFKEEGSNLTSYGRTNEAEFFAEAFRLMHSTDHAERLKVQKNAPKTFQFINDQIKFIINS

On to `O=c1[nH]nc(Sc2ncc([N+](=O)[O-])s2)n1-c1ccc([N+](=O)[O-])cc1` [Compound 3j, 4-(4-nitrophenyl)-5-(5-nitrothiazol-2-ylthio)-4H-1,2,4-triazol-3-ol], for which the IC50 in assay [1] was > 100 µM.
As for `Cn1cccc1-c1nnc(Sc2ncc([N+](=O)[O-])s2)n1-c1ccc(Cl)cc1Cl` [Compound 7b, 2-(4-(2,4-dichlorophenyl)-5-(1-methyl-1H-pyrrol-2-yl)-4H-1,2,4-triazol-3-ylthio)-5-nitrothiazole], in assay [1], the IC50 was > 100 µM.
As for `O=[N+]([O-])c1cnc(Sc2nnc(Sc3ncc([N+](=O)[O-])s3)s2)s1` [Compound 8f, 2,5-bis(5-nitrothiazol-2-ylthio)-1,3,4-thiadiazole], the concentration for half-maximal inhibition (IC50) in assay [1] was > 100 µM.
For `Nc1nnc(Sc2ncc([N+](=O)[O-])s2)s1` [Compound 9, 5-(5-nitrothiazol-2-ylthio)-1,3,4-thiadiazol-2-amine], the “effect of insulin on blood glucose levels compared to the vehicle control” value in assay [2] was “statistically significant reduction in blood glucose levels”. Also, the “activity against Akt kinase” value on Akt1 is “completely inactive”. In assay [1], the IC50 was > 100 µM.

The values above are taken from PMC2667321 (Journal of medicinal chemistry, 2009).
